The values below come from PubChem BioAssay AID328 (DTP/NCI, 2004).

In the experiment the test system is BDF1 mice, P388 leukemia ip, median survival T/C. Put plainly: NCI In Vivo Anticancer Drug Screen. Data for tumor model P388 Leukemia (intraperitoneal) in B6D2F1 (BDF1) mice. To be noted: endpoint: median survival time, higher = longer survival. The method in brief: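 In tumour-bearing mice, survival after compound treatment is set against the vehicle group and given as a quotient.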

The mark [1] stands for this setting: dose: 6.25 mg/kg/injection, schedule: Q01DX009 (ip), vehicle: saline with Tween-80.
The mark [2] stands for this setting: dose: 100.0 mg/kg/injection, schedule: Q01DX001 (ip), vehicle: Klucel (hydroxypropylcellulose) (HPC).
Where [3] appears, read: dose: 200.0 mg/kg/injection, schedule: Q01DX001 (ip), vehicle: Klucel (hydroxypropylcellulose) (HPC).
[4] abbreviates: dose: 400.0 mg/kg/injection, schedule: Q01DX001 (ip), vehicle: Klucel (hydroxypropylcellulose) (HPC).
Setting [5] is: dose: 100.0 mg/kg/injection, schedule: Q01DX009 (ip), vehicle: saline.
[6] abbreviates: dose: 100.0 mg/kg/injection, schedule: Q04DX003 (ip), vehicle: saline with Tween-80.
Where [7] appears, read: dose: 200.0 mg/kg/injection, schedule: Q04DX003 (ip), vehicle: saline with Tween-80.
Where [8] appears, read: dose: 400.0 mg/kg/injection, schedule: Q04DX003 (ip), vehicle: saline with Tween-80.
Where [9] appears, read: dose: 25.0 mg/kg/injection, schedule: Q01DX009 (ip), vehicle: saline with Tween-80.
Setting [10] is: dose: 25.0 mg/kg/injection, schedule: Q04DX003 (ip), vehicle: saline with Tween-80.
Setting [11] is: dose: 50.0 mg/kg/injection, schedule: Q01DX009 (ip), vehicle: saline with Tween-80.
Where [12] appears, read: dose: 50.0 mg/kg/injection, schedule: Q04DX003 (ip), vehicle: saline with Tween-80.
The mark [13] stands for this setting: dose: 100.0 mg/kg/injection, schedule: Q01DX009 (ip), vehicle: saline with Tween-80.
Where [14] appears, read: dose: 200.0 mg/kg/injection, schedule: Q01DX009 (ip), vehicle: saline with Tween-80.
[15] abbreviates: dose: 400.0 mg/kg/injection, schedule: Q01DX009 (ip), vehicle: saline with Tween-80.

Structures are written as SMILES. “And” between values parts separate entries of the source, which are not always exact repeats. Identical values can stand only once. Inconclusive results and toxic doses are left out.

As for `COC(=O)CCCNC1CCCCC1`, the T/C (dose: 50.0 mg/kg/injection, schedule: Q01DX001 (ip), vehicle: saline) is 107 % of control; the T/C (dose: 100.0 mg/kg/injection, schedule: Q01DX001 (ip), vehicle: saline) is 114 % of control; the T/C (dose: 200.0 mg/kg/injection, schedule: Q01DX001 (ip), vehicle: saline) was 102 % of control.

`CC(=O)C1(O)Cc2c(O)c3c(c(O)c2C(O)C1)C(=O)c1c(OC(C)C)cccc1C3=O` (stereo not given): the T/C (dose: 3.13 mg/kg/injection, schedule: Q04DX003 (ip), vehicle: other) was 108 % of control; the T/C (dose: 3.13 mg/kg/injection, schedule: Q04DX009 (ip), vehicle: other) is 101 % of control; the T/C (dose: 6.25 mg/kg/injection, schedule: Q04DX003 (ip), vehicle: other) is 105 % of control; the T/C (dose: 6.25 mg/kg/injection, schedule: Q04DX009 (ip), vehicle: other) is 92 % of control; the T/C (dose: 12.5 mg/kg/injection, schedule: Q04DX003 (ip), vehicle: other) was 100 % of control; the T/C (dose: 12.5 mg/kg/injection, schedule: Q04DX009 (ip), vehicle: other) is 110 % of control. For the same compound, the T/C by setting is: (dose: 25.0 mg/kg/injection, schedule: Q04DX003 (ip), vehicle: other) 105 % of control; (dose: 25.0 mg/kg/injection, schedule: Q04DX009 (ip), vehicle: other) 110 % of control; (dose: 50.0 mg/kg/injection, schedule: Q04DX003 (ip), vehicle: other) 101 % of control; (dose: 50.0 mg/kg/injection, schedule: Q04DX009 (ip), vehicle: other) 99 % of control.

Consider `CCN(CC)CCNc1ccc(COC(=O)NC)c2sc3ccccc3c(=O)c12`, for which, under setting [1], the T/C is 166 % of control.

Consider `O=[N+]([O-])c1cccc(/C=C/C=C/c2ccc(S(=O)(=O)F)cc2Cl)c1`, for which the T/C was 100 % of control under setting [2], 95 % of control under setting [3] and 95 % of control under setting [4].

As to `NC(=O)NOCC1NC(=O)C(CONC(N)=O)NC1=O` (stereo not given), the T/C is 116 % of control under setting [5] and 105 % of control (dose: 400.0 mg/kg/injection, schedule: Q01DX009 (ip), vehicle: saline).

With `COc1ccc(C(C)c2ccccc2)cc1C(C)c1ccccc1` (stereo not given), the T/C reads like this: under setting [6], 109 % of control; under setting [7], 90 % of control; under setting [8], 100 % of control.

With `CC(=O)CSc1nc2nccnc2[nH]1`, the T/C reads like this: under setting [9], 111 % of control; under setting [10], 97 % of control; under setting [11], 111 % of control; under setting [12], 108 % of control; under setting [13], 106 % of control; under setting [6], 97 % of control. In addition, the T/C under setting [14] is 106 % of control, the T/C under setting [7] is 105 % of control, the T/C under setting [15] is 103 % of control and the T/C under setting [8] was 100 % of control.

Take `CC1C[N-]1.CC1C[N-]1.[Cl][Pt+2][Cl]` (stereo not given): the T/C is 100 % of control (dose: 25.0 mg/kg/injection, schedule: Q01DX009 (ip), vehicle: saline); 111 % of control (dose: 50.0 mg/kg/injection, schedule: Q01DX009 (ip), vehicle: saline); 101 % of control under setting [5]; 100 % of control (dose: 150.0 mg/kg/injection, schedule: Q01DX009 (ip), vehicle: saline).

Turning to `CC(=O)OC1(C)CC(C)C(O)C(C(O)CC2CC(=O)NC(=O)C2)C1` (stereo not given), the T/C runs as follows: (dose: 0.5 mg/kg/injection, schedule: Q01DX010 (ip), vehicle: water) 120 % of control; (dose: 2.0 mg/kg/injection, schedule: Q01DX010 (ip), vehicle: water) 150 % of control and 160 % of control; (dose: 3.0 mg/kg/injection, schedule: Q01DX010 (ip), vehicle: water) 190 % of control; (dose: 4.0 mg/kg/injection, schedule: Q01DX010 (ip), vehicle: water) 90 % of control and 110 % of control.

Consider `CC1CC(C)(C)N=C(CC(C)(O)c2ccccn2)O1` (stereo not given), for which the T/C (dose: 100.0 mg/kg/injection, schedule: Q01DX001 (ip), vehicle: saline sonified) was 100 % of control; the T/C (dose: 200.0 mg/kg/injection, schedule: Q01DX001 (ip), vehicle: saline sonified) is 90 % of control; the T/C (dose: 400.0 mg/kg/injection, schedule: Q01DX001 (ip), vehicle: saline sonified) is 100 % of control.

Take `C=C1C(=O)[C@]23C[C@H]1CC[C@H]2[C@@]12CO[C@@H](O)[C@@H]1C(C)(C)[C@@H](O)C[C@@H]2OC3=O`: the T/C (dose: 3.13 mg/kg/injection, schedule: Q01DX009 (ip), vehicle: saline with Tween-80) is 112 % of control; the T/C under setting [1] was 118 % of control; the T/C under setting [9] was 117 % of control; the T/C under setting [11] was 119 % of control and 121 % of control; the T/C under setting [13] was 112 % of control; the T/C under setting [14] is 120 % of control.

In the case of `C=CC1CN2CCC1CC2C(O)c1ccnc2ccccc12` (stereo not given), the T/C by setting is: under setting [12], 102 % of control; under setting [6], 88 % of control; under setting [7], 107 % of control.

Consider `CN(CCS)Cc1ccccc1`, for which the T/C was 100 % of control under setting [10], 104 % of control under setting [12] and 100 % of control under setting [6].

In the case of `CC(C)c1ncc([N+](=O)[O-])n1C`, the T/C is 100 % of control under setting [13], 87 % of control under setting [14] and 100 % of control under setting [15].

Take `C[Si](C)(C)O/C=C1/CCOC1=O`: the T/C was 102 % of control under setting [11], 110 % of control under setting [13], 119 % of control under setting [14] and 117 % of control under setting [15].

On to `O=C(O)CCSSc1ccc([N+](=O)[O-])cc1[N+](=O)[O-]`, for which the T/C was 95 % of control (dose: 6.25 mg/kg/injection, schedule: Q01DX009 (ip), vehicle: Klucel (hydroxypropylcellulose) (HPC)); 100 % of control (dose: 6.25 mg/kg/injection, schedule: Q04DX003 (ip), vehicle: Klucel (hydroxypropylcellulose) (HPC)); 100 % of control (dose: 12.5 mg/kg/injection, schedule: Q01DX009 (ip), vehicle: Klucel (hydroxypropylcellulose) (HPC)); 109 % of control (dose: 12.5 mg/kg/injection, schedule: Q04DX003 (ip), vehicle: Klucel (hydroxypropylcellulose) (HPC)); 104 % of control (dose: 25.0 mg/kg/injection, schedule: Q01DX009 (ip), vehicle: Klucel (hydroxypropylcellulose) (HPC)); 109 % of control (dose: 25.0 mg/kg/injection, schedule: Q04DX003 (ip), vehicle: Klucel (hydroxypropylcellulose) (HPC)).

In the case of `FC(F)(F)c1cc(-c2ccc(C3Nc4ccccc4-n4cccc43)o2)cc(C(F)(F)F)c1` (stereo not given), the T/C under setting [11] was 92 % of control, the T/C under setting [13] was 90 % of control and the T/C under setting [14] was 92 % of control.

With `CCOC(=O)CCSC(C)(C)C(=O)OCC`, the T/C is, setting by setting: (dose: 100.0 mg/kg/injection, schedule: Q01DX009 (ip), vehicle: Klucel (hydroxypropylcellulose) (HPC)) 100 % of control; (dose: 100.0 mg/kg/injection, schedule: Q04DX003 (ip), vehicle: Klucel (hydroxypropylcellulose) (HPC)) 104 % of control; (dose: 200.0 mg/kg/injection, schedule: Q01DX009 (ip), vehicle: Klucel (hydroxypropylcellulose) (HPC)) 105 % of control; (dose: 200.0 mg/kg/injection, schedule: Q04DX003 (ip), vehicle: Klucel (hydroxypropylcellulose) (HPC)) 104 % of control; (dose: 400.0 mg/kg/injection, schedule: Q01DX009 (ip), vehicle: Klucel (hydroxypropylcellulose) (HPC)) 105 % of control; (dose: 400.0 mg/kg/injection, schedule: Q04DX003 (ip), vehicle: Klucel (hydroxypropylcellulose) (HPC)) 100 % of control.

On to `c1ccc(CNc2ncncc2-c2ccccc2)cc1`, for which the T/C reads like this: under setting [11], 98 % of control; under setting [13], 105 % of control; under setting [14], 99 % of control.

Take `CCOc1nc(=O)n(C2CCOC2=O)cc1F` (stereo not given): the T/C is 100 % of control under setting [2], 100 % of control under setting [3] and 104 % of control under setting [4].

`CC1(C)N=C(N)N=C(N)N1c1ccc(CCc2ccc(S(=O)(=O)F)cc2)c(Cl)c1`: the T/C was 122 % of control (dose: 33.0 mg/kg/injection, schedule: Q04DX003 (ip), vehicle: saline sonified) and 159 % of control under setting [13].
